Assay results: patent US20250041311A1, “Compound For Treating or Preventing Vimentin-Mediated Diseases” (Aluda Pharmaceuticals, Inc., priority 2021, published 2025)

Experiments:
A549 cells [1] = assay: Transwell cell invasive growth assay; type: cell-based, human; conditions: different concentrations of C52, 24 h
Procedure: (§1) Cell invasive growth assay: Inoculate 1×10E4 cells suspended in 100 μL serum-free RPMI-1640 medium into each upper chamber of a […] Transwell pre-coated with Matrigel and added with DMSO or […] (Cat.3422, Corning, NY, USA). in different concentrations. Add 600 μL of RPMI-1640 containing 10% FBS to the bottom chamber of each well. Cells in transwell plates were cultured for 24 h. Cells on the upper surface were gently wiped with a moistened cotton swab, while cells that passed through the Matrigel to the lower surface of the membrane were fixed with paraformaldehyde and stained with 0.1% crystal violet. These cells on the lower surface were considered invasive and counted in 5 random fields under an inverted microscope. The number of invasive cells was counted by Image J software.

PANC-1 cells [2] = assay: Transwell cell invasive growth assay; type: cell-based, human; conditions: different concentrations of C52, 24 h; more pronounced than in A549
Procedure: as §1

[3] = test system: 84 selected human cancer-associated proteins in PANC-1 cells; conditions: 3 μM C52 or 5 μM C52 for 48 h
Procedure: Cell culture: Human non-small cell lung cancer A549 cells, human pancreatic cancer PANC-1 cells, human glioma U87 cells, human liver cancer HUH7 cells and SMMC-7721 cells, and human gastric cancer AGS cells were purchased from ATCC or Stem Cell Bank of Chinese Academy of Sciences (Shanghai, China). Cells were cultured in RPMI1640 medium containing 10% fetal bovine serum (Sigma, USA), 100 U penicillin and 100 μg/ml streptomycin (Gibco, USA) at 37° C. in a humidified atmosphere containing 5% CO2.
A total of 200 g of lysate protein was run on one Human XL Tumor Array (R&D Systems, Abingdon, UK). Followed the manufacturer's instructions exactly. The protein chip membrane was covered with plastic film and exposed to X-ray film for 8 minutes. Optical density on exposed X-ray film (hu.q, HQ-320XT, China) was quantified using a transmission mode scanner (EPSON, Beijing, China) and analyzed using Image J software.

A549 cells [4] = assay: Wound healing assay; type: cell-based, human; conditions: different concentrations of C52, 48 h, dose-dependent
Procedure: Wound healing assay: Cells were seeded in 6-well plates containing complete medium and cultured at 37° C. in a humidified air environment containing 5% CO2. […] […] The wound area and migrated cells within the wound area were photographed using a phase-contrast microscope. The wound area was measured using Image J software.

DSS-induced colitis mice = assay: DSS-induced colitis mouse model; type: in vivo; conditions: 3 mg/kg C52 intragastric, 14 days
Procedure: Male BALB/c mice aged 6 to 7 weeks were given 2.8% DSS (Yisheng Biotechnology Co., Ltd., Shanghai) to induce ulcerative colitis through drinking water, and the model was established continuously for 7 days. From the first day of modeling, 3 mg/kg of […] or 300 mg/kg of the positive drug mesalamine (5'-aminosalicylic acid, 5-ASA) was given by intragastric administration, and continued after the modeling 7 days. The model group was given the same volume of solvent every day. The normal control group was fed routinely without any treatment. From the first day of modeling, the animals in each group were weighed every day, and the health condition of the mice, appearance of feces and hematochezia were recorded. When the body weight of the mice lost more than 25% during the modeling process, the animals were euthanized in time. After 14 days of administration of […], mice in each group were sacrificed by vertebral dislocation. The colon was harvested, photographed and its length measured. The colon near the rectum was cut and stored in 4% paraformaldehyde ([…] Biotechnology Co., Ltd., Wuhan) for HE staining to observe the histopathological changes of the colon. Mesenteric lymph nodes were collected for flow cytometric detection of the proportion of Treg cells.

PANC-1 cells [5] = assay: Exosome release from pancreatic cancer cells (NTA, Western blot); type: cell-based, human
Procedure: (§2) Human non-small cell lung cancer A549 cells and human pancreatic cancer PANC-1 cells were purchased from the Chinese Academy of Sciences Stem Cell Bank (Shanghai, China). […] Purification, characterization, and analysis of exosomes: To purify exosomes from cell culture supernatants, cells were cultured for 3 days in DMEM medium supplemented with 10% exosome-free FBS prepared by ultracentrifugation of regular FBS at 120,000 g for 16 h. Cell culture supernatants were collected and centrifuged at 500 g for 5 min and then at 2,000 g for 20 min to remove dead cells and cell debris. Then, large vesicles were removed by centrifugation at 12,000 g for 30 minutes. Crude exosomes were pelleted by ultracentrifugation of the supernatant at 110,000 g for 70 min (Backman Ti70), washed with PBS and filtered (0.2 μm). The pellet was then suspended and ultracentrifuged again at 110,000 g for 70 minutes. All ultracentrifugations were performed at 4° C. The size and number of exosomes were analyzed using an LM10 nanoparticle tracking system (NanoSight) equipped with a blue laser (405 nm). Transmission electron microscope (TEM) observation: The morphology of exosomes prepared from the culture supernatant was observed by transmission electron microscope (TEM). Exosome pellets were fixed overnight at 4° C. in 2% glutaraldehyde. Load a drop of 10 μL of the exosome suspension onto the Formvar/Carbon-coated TEM copper grid and let it stand for 20 min. Drain excess fluid. Samples were fixed with 1% uranyl acetate for 5 min, washed 8 times with double distilled water, and dried under incandescent lamp for 10 min, then examined with Tecnai G2 Spirit Bio TWIN transmission electron microscope (FEI, Hillsboro, USA, working voltage 120 kV). […] The lysate was centrifuged to remove insoluble material.

Huh7-NC12 cells = assay: PrestoBlue cell viability of liver cancer cells
A549 cells [6] = assay: Exosome release from lung cancer cells (NTA, Western blot); type: cell-based, human
Procedure: as §2

Treg cells = assay: Syngeneic mouse CT26 tumor model (Treg activation and regeneration); type: in vivo; conditions: 100 mg/kg C52 oral QD
Procedure: BALB/c mice were subcutaneously inoculated with 1×10E6 CT26 cells. Mice were randomly assigned to each treatment group. The tumor size was measured with a caliper, and the tumor volume was calculated by the following formula: V=length×width 2×1/2. Tumor-bearing mice were orally administered with vehicle or 100 mg/kg […], QD. On the 13th day after tumor inoculation, vehicle- and […]-treated mice were given a single intraperitoneal injection of low-dose (50 mg/kg) cyclophosphamide (Sigma-Aldrich). Mice were euthanized before tumors reached 2.0 cm in longest dimension. Spleen and lymph node samples were collected for flow cytometric analysis.

[7] = Western blot, 0.1, 1 and 10 μM C52, 48 h
[8] = Western blot, 0.1, 1 and 10 μM C52, 48 h, extracellular

Procedure for U87 cells: Western blotting: Exosomes from cultures in different conditions were collected and purified by a classical differential centrifugation protocol, and then lysed with PMSF-containing RIPA buffer (Beyond Biotechnology, Shanghai, China). The lysate was centrifuged to remove insoluble material. The concentration of protein was determined by enhanced BCA protein assay kit (Beyontian Biotechnology, Shanghai, China). 40 g of proteins were separated by sodium dodecyl sulfate-polyacrylamide gel electrophoresis (SDS-PAGE) and transferred to a polyvinylidene difluoride membrane (Merck Millipore). Membranes were blocked with 5% milk for 1 h and then incubated with primary antibodies overnight at 4° C. Membranes were washed 3 times and then incubated with secondary antibodies for 1 h at room temperature. Bands were detected by Gel Imaging System (Bio-Rad, USA) and measured by Image J. The primary antibodies used were rabbit anti-β-actin, GAPHD, CD63, CD9, TSG101 and vimentin (Abcam, UK).

O=C(Nc1ccc(F)cc1)Nc1ccc(Nc2nc(/C=C/c3ccccc3)nc(N3CCOCC3)n2)cc1 [Compound C52]
migratory ability (Transwell) (A549 cells [1]): hindered the migratory ability | migratory ability (Transwell) (PANC-1 cells [2]): hindered the migratory ability | amount of exosomal markers CD9 and CD63 inside the cells (U87 cells): did not reduce | extracellular levels of exosomal markers CD9 and CD63 (U87 cells): reduced | CD9 in the cell culture medium (U87 cells; vimentin-knockdown U87 Vim+/- cells, 2 μM C52, 72 h): further reduction | inhibition of GFP signal increase (Pseudovirus-2019-nCoV): as strong as that by the positive control | IC50 (Pseudovirus-2019-nCoV; read-out: IC50 of inhibition of pseudovirus infection): < 50 nM | effect on protein levels of vimentin and other signaling molecules involved in cell proliferation [3]: little or no effect | closure rate of the gap size (A549 cells [4]): significantly decreased | disease activity index (DSS-induced colitis mice; vs vehicle): decreased | histological score (DSS-induced colitis mice; vs vehicle): very significant reduction | intestinal bleeding (DSS-induced colitis mice; vs vehicle): reduced | shortened colon length (DSS-induced colitis mice; vs vehicle): marked improvement | weight loss (DSS-induced colitis mice; vs vehicle): significantly less | ratio of Treg to CD4+ T cells in the mesenteric lymph nodes (DSS-induced colitis mice; vs vehicle control): significantly higher | exosomes in culture supernatant (nanoparticle tracking analysis) (PANC-1 cells [5]; 1 μM C52 vs DMSO): significantly reduced | intracellular exosome levels (PANC-1 cells [5]; [7]): did not reduce | content of exosomal markers (CD9, CD63, TSG101) in prepared exosome samples (PANC-1 cells [5]; [8]): significant reduction | cytotoxicity (Huh7-NC12 cells; 48 h, highest concentration 10,000 nM, high concentrations 3,160 and 10,000 nM): not cytotoxic | survival rate (Huh7-NC12 cells; after two days of treatment): about 90% | toxicity to Huh7-NC12 cells (Huh7-NC12 cells; high concentrations (>3160 nM)): not toxic | exosomes in culture supernatant (nanoparticle tracking analysis) (A549 cells [6]; 1 μM C52 vs DMSO): significantly reduced | intracellular exosome levels (A549 cells [6]; [7]): did not reduce | content of exosomal markers (CD9, CD63, TSG101) in prepared exosome samples (A549 cells [6]; [8]): significant reduction | tumor growth vs vehicle-treated control mice (Treg cells; BALB/c mice with CT26 tumors): grow faster | regeneration of Treg in lymph nodes (Treg cells; day 29, 16 days after low-dose cyclophosphamide): significantly increased
